From patent US12458581B2, “Carboxylic acid loaded salt carrier and the method for producing thereof” (priority 2021, dated 2025)
Where two headings read alike, the source gives them in different places.

Experiments:
[1] = Application as additive in liquid shaving soap
Text: The mix was stirred with hard soap pieces remaining undissolved and placed for 50 seconds at 600 W in a microwave oven. […] The mixture was placed for 80 seconds in a microwave at 600 W. Thereafter the resulting mixture was hand-blended and filled into a jar for testing and storage.

[2] = tested on: total bacteria count (TBC); details: forage, 0.5 wt % topical, r.t., 31 days
Method: (§1) All tests were conducted under equal conditions. […] The additives were dosed at 0.5 wt % and were applied topically to the samples. […] The preservation effectiveness was established by testing for total bacteria count (TBC), yeast/fungi count and Enterobacteria/β-Glucoronidase-positive-Enterobacteria (E/β).

[3] = pH measurement of 0.1 M aqueous solutions; assay type: physicochemical; details: 0.1 M in millipore water, r.t., average of at least three measurements
Text: For the pH measurements, a Seven2Go portable pH meter S2 (pH measuring-range: −2 to 20; resolution: 0.01) with an InLab Ultra Micro-ISM electrode (measuring range: pH −1 to pH 11; low temperature membrane glass type; ceramic diaphragm; reference system with Ag^+ ion trap by argenthal) as well as with an in-lab routine pH electrode (measuring range: pH 0 to pH 14; ceramic diaphragm; reference system with Ag^+ ion trap by argenthal) from Mettler-Toledo AG (Analytical, Switzerland) was used.
For sake of comparability, compounds of the same loading ratio n=2, which is 2:1 of the loaded carboxylic acid with respect to the carrier carboxylic acid, were selected for this analysis. […] The analytes were dissolved in millipore water, stirred for 5 minutes in an airtight vial to perform the pH measurements thereafter at r.t. All measurements were performed at 0.1 molar (M) concentration of the samples, which is 0.1 mol per liter (mol/L).
For sake of reliability, every result stated is the average of at least three single measurements. […] The numbers 1-73 (nr., first row) are used as an assignment for the 73 pairs, comprising the compound of invention (third row), the corresponding carrier carboxylic acid (fourth row) and the loaded carboxylic acid (fifth row), as used in the FIG. 6.

[4] = tested on: yeast/fungi; assay: Silage preservation: yeast/fungi count; details: forage, 0.5 wt % topical, r.t., 31 days
Method: as §1

[5] = tested on: Enterobacteria/β-Glucoronidase-positive-Enterobacteria (E/β); assay: Silage preservation: E/β count; details: forage, 0.5 wt % topical, r.t., 31 days
Method: as §1

[6] = Thermal analysis (TGA/DTA); assay type: physicochemical
Method: Thermal analysis was carried out with a Linseis STA 1600 simultaneous thermal analyzer to determine simultaneous changes of weight (TGA signal) and caloric measurable transformations (DTA signal) in a temperature range between r.t. and 300° C.

[7] = mean particle diameter

| Compound | TBC [2] | pH values compound [3] | yeast count [4] | E/β count [5] | stability (>24 h) [1] | further results |
| --- | --- | --- | --- | --- | --- | --- |
| O=C([O-])CC(O)(CC(=O)[O-])C(=O)[O-].O=C([O-])CC(O)(CC(=O)[O-])C(=O)[O-].[Ca+2].[Ca+2].[Ca+2] [calcium citrate] | – | – | – | – | – | stability (>24 h) ([1]; liquid shaving soap, additive 1 or 2 % wt): yes |
| O=CO.O=CO.O=C[O-].O=C[O-].[Ca+2] [CaFo-HFo [2], calcium formate with loaded formic acid] | dramatically reduce | 5.19 | dramatically reduce | dramatically reduce | – | – |
| CC(=O)O.CC(=O)O.CC(=O)[O-].CC(=O)[O-].[Ca+2] [CaAc-HAc [2], calcium acetate with loaded acetic acid] | – | 5.05 | – | – | – | thermal stability of the carrier carboxylic acid salt ([6]; TGA/DTA between r.t. and 300° C.): ≤ 300 °C; first loss of weight (TGA) ([6]; partially hydrated sample prior drying, 25-135° C.): −7.0 wt % of total weight; second stage of weight-loss (TGA) ([6]; partially hydrated sample prior drying, 135-300° C.): 11.7 wt % of the total weight; overall loss of weight (TGA) ([6]; partially hydrated sample, between r.t. and 300° C.): 18.74%; dav [7]: 221 μm; dav ([7]; listed as CaAc—HAc [2]): approximately 220 μm |
| CC(O)C(=O)O.CC(O)C(=O)O.O=C([O-])c1ccccc1O.O=C([O-])c1ccccc1O.[Ca+2] [CaSal-HLac [2], calcium salicylate with loaded lactic acid] | – | 3.43 | – | – | yes | – |
| O=C(O)CC(O)C(=O)O (stereo not drawn) [malic acid] | – | – | – | – | no | – |
| CCC(=O)O.CCC(=O)O.O=C[O-].O=C[O-].[Ca+2] [CaFo-HProp [2], calcium formate with loaded propionic acid] | dramatically reduce | 5.79 | dramatically reduce | dramatically reduce | – | growth of yeasts [4]: completely inhibit; growth of β-Glucoronidase-positive-Enterobacteria (especially E. coli) [5]: completely inhibit |
